Experimental data taken from the RepoRT retention time repository (doi:10.1016/j.aca.2019.02.001).

Assay: RP, Agilent ZORBAX Eclipse XDB-C18, 100 × 2.1 mm, 1.8 µm, 50 °C, 0.4 mL/min, estimated dead time 0.55 min; A: water + 0.1% formic acid; B: methanol; gradient (min/%B) 0/30 2/30 5/52 15/65 20/78 22.5/78 29/90 38/100
Settings: stereoisomer not certain

SMILES | LC retention time
CC(CCC(=O)O)C1CCC2C3CCC4CC(O)CCC4(C)C3CCC12C (configuration not stated) | 26.2 min
CCC=CCC=CCC=CCCCCCCCC(=O)O | 27.5 min
CCCCCC=CCC=CCCCCCCCC(=O)O | 28.8 min
NC(CO)C(=O)O (configuration not stated) | 5.14 min
CCCCC(C)CCC(=O)O (configuration not stated) | 22.5 min
CC(C)CC(=O)O | 14 min
CCCCCCCCC=CCCCCCCCCCC(=O)O | 31.8 min
CCC=CCC=CCC=CCC=CCC=CCCCC(=O)O | 27.5 min
CCCCCC=CCC=CCC=CCC=CCCCC(=O)O | 28.7 min
CC(CCC(=O)O)C1CCC2C3C(O)CC4CC(O)CCC4(C)C3CCC12C (configuration not stated) | 24.9 min
CCCCCC(=O)O | 17.4 min
CCCCCCCCC=CCCCCCCCCCCCCCC(=O)O | 34.2 min
CCCCCCCCCCCCC(=O)O | 26.4 min
CC(C)C(N)C(=O)O (configuration not stated) | 9.34 min
NCCO | 5.87 min
CSCCC(N)C(=O)O (configuration not stated) | 9.06 min
CCCCC(=O)O | 14.5 min
CCCCCCCCCCCCCCC(=O)O | 28.4 min
O=C(O)c1cc(=O)c2cccc(O)c2[nH]1 | 9.89 min
CCCCCCCCCCCCCCCCCCCCC(=O)O | 33.4 min
O=C(O)C1CCCN1 (configuration not stated) | 8.37 min
NC(CS)C(=O)O (configuration not stated) | 6.31 min
CC(C)CCC(=O)O | 17.1 min
NC(Cc1c[nH]c2ccccc12)C(=O)O (configuration not stated) | 9.89 min
NC(Cc1ccc(O)cc1)C(=O)O (configuration not stated) | 20.5 min
O=C(O)C(=O)Cc1c[nH]c2ccccc12 | 15.5 min

SMILES | LC retention time
COc1cc2c(CCNC(C)=O)c[nH]c2cc1O | 11.9 min
CCCCCCCCCCCCCCCC(=O)O | 29.8 min
NC(N)=NCCCC(N)C(=O)O (configuration not stated) | 3.02 min
NCCCCN | 17.6 min
CC(C)C(=O)O | 11.4 min
CCCCCCCCCCCCCCCCCCCCCC(=O)O | 34 min
COc1ccc2[nH]cc(CC(=O)O)c2c1 | 12.1 min
CC(N)C(=O)O (configuration not stated) | 6.78 min
O=C(O)Cc1c[nH]c2ccccc12 | 13.4 min
Nc1c(O)cccc1C(=O)CC(N)C(=O)O (configuration not stated) | 21 min
CCCCCCC=CCCCCCCCC(=O)O | 27.9 min
NCC(=O)O | 5.85 min
NCCCNCCCCNCCCN | 6.5 min
CCCCCCCCCCCCCCCCCC(=O)O | 31.5 min
CC(O)C(N)C(=O)O (configuration not stated) | 6.29 min
CC(CCC(=O)O)C1CCC2C3CCC4CC(O)CCC4(C)C3CC(O)C12C (configuration not stated) | 25.2 min
CCCCC(C)C(=O)O (configuration not stated) | 18.9 min
O=C(O)C(O)Cc1c[nH]c2ccccc12 (configuration not stated) | 12.1 min
NC(=O)CC(N)C(=O)O (configuration not stated) | 3.75 min
O=C(O)CCCC(=O)C(=O)O | 7.25 min
CCCCCCCCCC(=O)O | 24.3 min
CCCCCCCC(=O)O | 21.4 min
CC(CCC(=O)O)C1CCC2C3C(O)CC4CC(O)CCC4(C)C3CC(O)C12C (configuration not stated) | 24.2 min
NC(Cc1ccccc1)C(=O)O (configuration not stated) | 11.8 min
CCC(=O)O | 9.67 min
NCCCCC(N)C(=O)O (configuration not stated) | 16.2 min

SMILES | LC retention time
O=C(O)Cc1c[nH]c2ccc(O)cc12 | 12.1 min
CCCCCCCCCCCCCCCCCCC(=O)O | 32.1 min
CCCC(=O)O | 11.8 min
CCCCCCCCCCCCCC(=O)O | 27.3 min
CCC=CCC=CCC=CCC=CCC=CCC=CCCC(=O)O | 28.5 min
CCC(C)C(N)C(=O)O (configuration not stated) | 11.4 min
CC(=O)O | 8.11 min
NC(=O)CCC(N)C(=O)O (configuration not stated) | 4.45 min
Nc1c(O)cccc1C(=O)O | 15.7 min
CC(=O)NCCc1c[nH]c2ccc(O)cc12 | 12.2 min
CCCCCCCCCCCC(=O)O | 25.6 min
CC(C)CC(N)C(=O)O (configuration not stated) | 11.7 min
CCCCCC(C)C(=O)O (configuration not stated) | 20.6 min
CCCCCCCCC=CCCCCCCCC(=O)O | 30.5 min
Nc1ccccc1C(=O)CC(N)C(=O)O (configuration not stated) | 9.21 min
NCCc1c[nH]c2ccccc12 | 13.4 min
O=C(O)c1cccnc1C(=O)O | 8.32 min
NC(Cc1cnc[nH]1)C(=O)O (configuration not stated) | 2.35 min
CCC(C)CC(=O)O (configuration not stated) | 16.7 min
O=C(O)c1cc(=O)c2ccccc2[nH]1 | 17.4 min
CCCCCCC(=O)O | 19.7 min
NCCCCNCCCN | 9.8 min
CCCCC(CC)C(=O)O (configuration not stated) | 20.2 min
CCCCCCCCC=CCCCCCCCCCCCC(=O)O | 32.9 min
CCCCCCCCC(=O)O | 23 min
